Measurements taken from patent publication US20230190707A1, “COMPOSITIONS AND METHODS FOR ENHANCING CANCER IMMUNOTHERAPY” (FRED HUTCHINSON CANCER CENTER, priority 2020, published 2023).
pIC50: −log10 of the molar value.

Experiments:
MC38 cells = assay: In vivo tumor challenge with ex vivo MS-023-treated MC38 cells; parameters: species or system mouse; conditions: MC38 cells treated 5 μM for 96 hours
Experimental: (§1) Unless otherwise specified, cell lines were treated with splicing inhibitors at the indicated concentrations for 96 hours in vitro, harvested and washed three times with PBS in excess to remove all drug, and then used for downstream analyses and/or subsequent studies, including phenotyping, RNA-seq analyses, continued growth in vitro, or tumor challenge in vivo into syngeneic animals.
Unless otherwise specified, syngeneic B6 or Balb/c mice were engrafted subcutaneously on bilateral flanks with MC38, B16-F10, CT26 or LLC tumor cells at the following doses: MC38 10^6 cells, B16-F10 0.5×10^6 cells, CT26 0.25×10^6 cells, LLC 0.25×10^6 cells. Tumors were measured serially twice or three times weekly and tumor volumes were estimated by length×width×height. Animals were monitored daily for survival and weighed twice weekly. Experimental endpoints mandating euthanasia were approved by the IACUC and included: animal lethargy, severe kyphosis or evidence of pain, difficulty with ambulation or feeding, tumor ulceration>1 cm or bleeding tumor, evidence of infected tumor, tumor volumes exceeding 2.5 cm^3, or animal total body weight loss>10% from baseline.

MC38 tumors = assay: Therapeutic treatment with splicing compounds and anti-PD1, MC38 tumors; type: in vivo, mouse; conditions: three months following tumor implantation
Experimental: Animals were subcutaneously engrafted on bilateral flanks with tumor cells (MC38 1×10^6, B16-F10 0.5×10^6 and LLC 0.25×10^6 cells unless otherwise specified) on day 0, and treated continuously with splicing inhibitors (MS-023 50 mg/kg i.p., indisulam 25 mg/kg i.v. or vehicle) daily for 5 of 7 weekly days starting from day +3 of tumor challenge. […] Mice were weighed weekly for weight-based drug dosing.

[1] = tested on: asymmetric dimethyl arginines (ADMA); assay: ADMA levels by western blot after MS-023; type: cell-based, mouse; conditions: MC38 cells, 5 μM for 96 hours
Experimental: as §1
Western blotting was performed as per standard techniques. Anti-RBM39 (Atlas Antibodies, Cat. HPA001591 or Bethyl laboratories, Cat. A300-291A) were used to detect RBM39 degradation. ADMA and SDMA levels were determined using antibodies from Cell Signaling Technologies (Cat. 13222S and Cat. 135225). Actin antibody (clone AC-15) was obtained from MilliporeSigma (Cat. A5441-.2ML). Densitometry of RBM39 and actin loading control was performed using ImageJ software in order to calculate RBM39 degradation IC50 values.

H-2D^b = H-2D^b (Mus musculus, UniProt P01899); assay: MHC I immunoprecipitation and LC-MS/MS, H-2D^b; type: cell-based
Source text: Peptide-MHC complexes were isolated as previously described (Abelin, J. G., et al. (2017). Mass Spectrometry Profiling of HLA-Associated Peptidomes in Mono-allelic Cells Enables More Accurate Epitope Prediction. Immunity 46, 315-326, incorporated herein by reference in its entirety), with the following modifications: anti-mouse H-2D^b (clone B22-249.R1, CedarLane laboratories, Cat. CL9001AP) or H-2K^b (clone Y-3, BioXCell Cat. BE0172) non-covalently linked to GammaBind Plus Sepharose beads were co-incubated with soluble lysates overnight. […]
Desalted, dried samples enriched for MHC peptides were resolubilized in 8 uL 0.10% TFA and 3 uL were loaded onto a packed-in-emitter 12 cm/75 um ID/3 um C18 particles column (Nikkyo Technos Co., Ltd. Japan). […] Precursor mass spectra were recorded from m/z 300-1500 m/z range at 60,000 resolution. […] MS/MS spectra were recorded at 30,000 resolution and lowest mass set at m/z 110. […] All experiments were recorded in FT-mode.
Mass spectra from all MHC immunoprecipitations were analyzed using Proteome Discoverer v2.4.1.15, with the following workflow. […]

[2] = tested on: B16-F10, MC38, CT26, and LLC cells; assay: Cell growth/viability IC50 (CellTiter-Glo); type: cell-based; conditions: Mus musculus; range across B16-F10, MC38, CT26, LLC cells
Experimental: Cell lines were grown with half-log10 concentrations of the indicated drug in 4 to 8 technical replicates under standard conditions until the control condition (DMSO or vehicle) was confluent by microscopy. For tumor cell lines, viable cells were quantified via the CellTiter-Glo® assay (Promega Cat. G7573) as per manufacturer instructions. For the ex vivo proliferation of T cells, viable cells were instead quantified via flow cytometry using counting beads. The percentage or number of viable cells with drug treatment was calculated relative to DMSO control (as 100%). […] For absolute cell number, Annexin V+, CD25+, and PD1+ flow cytometry data presented in Figure S4, dose-response models and IC50 values were computed using the R language's dre package (Ritz, C., et al. (2015). Dose-Response Analysis Using R. PLoS One 10, e0146021).

LLC tumors = assay: Therapeutic treatment with indisulam and anti-PD1, LLC tumors; type: in vivo, mouse; conditions: syngeneic C57BL/6; indisulam 25 mg/kg i.v.; anti-PD1 250 μg
Source text: Mice were weighed weekly for weight-based drug dosing.

CD8^+ T cells = assay: Peptide:H-2K^b tetramer staining of tumor-draining lymph nodes; type: in vivo, mouse; conditions: B16-F10 tumor-bearing mice, day 14

H-2D^b, sequence (P01899 25-362 limits assumed): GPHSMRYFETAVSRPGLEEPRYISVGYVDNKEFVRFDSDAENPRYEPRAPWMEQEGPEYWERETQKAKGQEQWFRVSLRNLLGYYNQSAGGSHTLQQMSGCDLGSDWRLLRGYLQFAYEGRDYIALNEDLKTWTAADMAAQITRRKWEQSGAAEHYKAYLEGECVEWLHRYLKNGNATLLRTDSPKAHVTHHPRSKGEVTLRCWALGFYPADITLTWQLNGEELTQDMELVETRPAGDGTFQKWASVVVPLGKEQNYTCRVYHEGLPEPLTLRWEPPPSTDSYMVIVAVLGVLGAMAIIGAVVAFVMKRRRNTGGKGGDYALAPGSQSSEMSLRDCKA

Compound | tumor growth following engraftment into syngeneic, immune-competent mice (MC38 cells) | mice alive and tumor-free (MC38 tumors) [%] | asymmetric dimethyl arginines (ADMA) [1] | peptides only recovered from indisulam-treated samples (H-2D^b; B16-F10 cells) | bound peptides arising from mRNA isoforms specifically promoted by indisulam treatment (H-2D^b; intersection with RNA-seq) | pIC50 [2] | growth of LLC tumors in vivo (LLC tumors) | frequencies of CD8^+ T cells recognizing splicing-derived peptides in tumor DLN (CD8^+ T cells)
CC(C)Oc1ccc(-c2c[nH]cc2CN(C)CCN)cc1 [MS-023] | durable suppression of tumor growth | 25 | globally reduced |  |  |  |  | 
NS(=O)(=O)c1ccc(S(=O)(=O)Nc2cccc3c(Cl)c[nH]c23)cc1 [indisulam] |  |  |  | 518 | 42 | 4.14 to 5.68 | inhibited tumor growth | increased frequencies of CD8^+ T cells
